In article PMC8997995, “Amphiphilic Cell-Penetrating Peptides Containing Natural and Unnatural Amino Acids as Drug Delivery Agents” (Cells, 2022):
Non-standard residues stand in square brackets, D forms with d. Residues, ends and D or L forms follow the SMILES beside them. Dip = N[C@H](C(=O)O)C(c1ccccc1)c1ccccc1

Legend:
HEK-293 cells = format: cell-based, human; conditions: HEK-293, 25 µM, 24 h incubation, MTS
Experimental: (§1) SK-OV-3, CCRF-CEM, HEK-293, MDA-MB-468, LLC-PK1, and MES-SA were used to determine the cytotoxicity of the synthesized linear and cyclic peptides. About 5000, 10,000, and 50,000 cells were seeded for SK-OV-3, HEK-293, and CCRF-CEM cells, respectively, in 0.1 mL of medium per well of 96-well plates. […]
(§2) Adhesive cells were detached with 0.05% trypsin/EDTA after 15 min. […] The cell viability was measured by utilizing Multi-Mode Microplate Reader (SpectraMax M5 model, Molecular Devices, San Jose, CA, USA) after adding 20 µL of the MTS reagent to each well and incubating for 3 additional hours. […] The percentage of cell viability was calculated using the following equation:(1) =(Average OD values of samples treated with the compound /Average OD values of no treatment samples )∗100

MES-SA cells = experiment: In vitro cytotoxicity (MTS) in MES-SA cells; format: cell-based, human; conditions: 10 µM, 24 h incubation, n = 3
Experimental: as §1, §2

MDA-MB-231 cells = experiment: Cellular uptake of F’-siRNA by flow cytometry in MDA-MB-231 cells; format: cell-based, human; conditions: MDA-MB-231, F’-siRNA 36 nM, n = 3
[1] = Circular dichroism, estimate of secondary structure; format: physicochemical; conditions: CD, 100 µM peptide in water, principal component regression analysis
Experimental: Samples were prepared in 100 µM concentration dissolved in water only. The cuvette with the 1 mm path length was used for all the measurements. The circular dichroism analysis was performed with a J-1500 Jasco spectrophotometer using nitrogen gas and PM-539 detector. Parameters were selected as follows: data interval 0.1 nm, data points 701, data pitch 0.1 nm, CD scale 200 mdeg/0.1 dOD, FL scale 200 mdeg/0.1 dOD, D.I.T 2 s, bandwidth 1 nm, cell length 1 mm, start mode immediately, scanning mode continuous, scanning speed 50 nm/min, shutter control auto, and N2 flowmeter manual. An average of three readings between 190 and 260 nm were collected for each sample. The analysis was carried out using one of Multivariate Regression Analyses, which is Principal Component Regression (PCR) with a basis set containing 26 proteins reference under the following conditions: standardization of result 100, replaced negative value to zero, and rejection percentage of 1%.

Dynamic light scattering = format: physicochemical; conditions: DLS, 10 µM, 25 °C
Experimental: The samples were prepared in 10 µM concentration and were incubated for approximately 2 h after thawing from a freezer (0 to −18 °C). Samples were analyzed by dynamic light scattering (DLS) for particle sizes and the polydispersity index (PI). The data were acquired by using a Zetasizer Nano ZS (Malvern, Worcestershire, UK), which has a 0.3 nm to 10 µm particle size range and was equipped with a laser beam (λ = 633 nm; 4 mW) and a scattered light detector positioned at an angle of 173° (noninvasive backscatter) in order to unmask scattered light signals of low intensity originated by the smaller particles. The analytical model was based on protein analysis. The sensitivity of the device is reported to be at 0.1 mg/mL (lysozyme). The refractive index and absorption were set at 1.450 and 0.001 for the material. The refractive index, viscosity, and temperature were set at 1.33, 0.8872, and 25 °C for dispersant. Particle sizes and PI measurements were made in disposable cuvettes (ZEN0040) at 25 °C and variable runs per measurement.

Plasma stability study = format: in vitro ADME; conditions: 500 µM in 25% human plasma in water, 37 °C
Experimental: The metabolic stability of [DipR]5 was assessed in human plasma by using a high-resolution mass spectrometer (LC-QTOF-MS). To remove the background interference, the data were processed by using a narrower (±0.1 m/z) extracted ion chromatogram (EIC) window. Test compound (500 µM) was incubated in 25% human plasma in water at 37 °C. 50 µL aliquots were taken at different time points (0, 0.5, 1, 2, 3, and 13 h), and the plasma proteins were precipitated by the addition of cold ethanol (50 µL) and incubated for 5 min in ice and water. The samples were centrifuged at 7000 RPM for 5 min, and the supernatant (10 µL) was injected into LC-QTOF-MS (Impact II model, Bruker Daltonik, Bremen, Germany). The samples were analyzed on Waters Xterra MS C18 5 µm 2.10 mm × 50 mm column at a flow rate of 0.3 mL/min using a linear gradient of aqueous ACN in the presence of formic acid (0.1%, v/v) as ion pair reagent. The analytes were quantified by their peak areas of EIC. The percentage digestion of the test compound was calculated relative to the peak areas at 0 min.

Other (random coil) [1]: 49.9%
Turn [1]: 16.6%
α-helix [1]: 21.4%
β-sheet [1]: 12.1%
Z average size (Dynamic light scattering): 200.6 nm
polydispersity index (PI) (Dynamic light scattering): 0.359
Compound: N=C(N)NCCC[C@@H]1NC(=O)[C@H](C(c2ccccc2)c2ccccc2)NC(=O)[C@H](CCCNC(=N)N)NC(=O)[C@H](C(c2ccccc2)c2ccccc2)NC(=O)[C@H](CCCNC(=N)N)NC(=O)[C@H](C(c2ccccc2)c2ccccc2)NC(=O)[C@H](CCCNC(=N)N)NC(=O)[C@H](C(c2ccccc2)c2ccccc2)NC(=O)[C@H](CCCNC(=N)N)NC(=O)[C@H](C(c2ccccc2)c2ccccc2)NC1=O [[DipR]5] (cyclo([Dip]R[Dip]R[Dip]R[Dip]R[Dip]R))
reduction of cell proliferation (HEK-293 cells): 56%
reduction of cell proliferation (MES-SA cells): 38%
increase of cellular uptake of F’-siRNA vs siRNA alone (MDA-MB-231 cells; N/P ratio 10, 24 h): 30 fold
increase of cellular uptake of F’-siRNA vs siRNA alone (MDA-MB-231 cells; N/P ratio 20, 24 h): 50 fold
stability in human plasma (Plasma stability study; 0-13 h, LC-QTOF-MS): high stability
metabolised at 1 h, 500 µM (Plasma stability study; after 1 h, LC-QTOF-MS EIC peak area relative to 0 min, read-out: degradation in human plasma): ~15%
